# ChEMBL document CHEMBL1201862, “PubChem BioAssay data set” (2004)
#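 Five concentrations, 48 hours, 96-well plates. GI50 marks 50% less growth.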 Calls of active or inactive are those of the source. Rule as the data show it: active = GI50 up to about 1.1 µM and inactive = higher.
# What was measured:
# Assay in all cases: NCI anticancer screen, dose series, 48 h
# [1] = system: HL-60
# [2] = system: UO-31
# [3] = system: Malme-3M
# [4] = system: HT-29
# [5] = system: OVCAR-8
# [6] = system: SK-OV-3
# [7] = system: 786-0
# [8] = system: HCT-116
# [9] = system: RPMI-8226
# [10] = system: CAKI-1
# [11] = system: CCRF-CEM
# [12] = system: UACC-62
# [13] = system: SK-MEL-2
# [14] = system: SK-MEL-28
# [15] = system: MDA-N
# [16] = system: SW-620
# [17] = system: OVCAR-3
# [18] = system: MCF7
# [19] = system: EKVX
# [20] = system: HCC 2998
# [21] = system: Hs-578T
# [22] = system: HOP-92
# [23] = system: SNB-19
# [24] = system: NCI-H460
# [25] = system: IGROV-1
# [26] = system: ACHN
# [27] = system: PC-3
# [28] = system: SN12C
# [29] = system: SF-295
# [30] = system: U-251
# [31] = system: T47D
# [32] = system: SNB-75
# [33] = system: MDA-MB-231
# [34] = system: COLO 205
# [35] = system: NCI/ADR-RES
# [36] = system: LOX IMVI
# [37] = system: OVCAR-4
# [38] = system: MDA-MB-435
# [39] = system: OVCAR-5
# [40] = system: A549
# [41] = system: SR
# [42] = system: SK-MEL-5
# [43] = system: NCI-H226
# [44] = system: SF-539
# [45] = system: HCT-15
# [46] = system: A498
# [47] = system: KM12
# [48] = system: HOP-62
# [49] = system: DU-145
# [50] = system: BT-549
# [51] = system: NCI-H522
# [52] = system: SF-268
# [53] = system: NCI-H23
# [54] = system: MOLT-4
# [55] = system: M14
# [56] = system: TK-10
# [57] = system: RXF 393
# [58] = system: K562
# [59] = system: UACC-257
compound,measurement,setting,value
CSc1nc(SC)c2c(C)cn(Cc3ccccc3)c2n1,GI50,[1],34 µM (inactive)
same,GI50,[2],56.8 µM (inactive)
same,GI50,[3],> 100 µM (inactive)
same,GI50,[4],41.7 µM (inactive)
same,GI50,[5],> 100 µM (inactive)
same,GI50,[6],> 100 µM (inactive)
same,GI50,[7],> 100 µM (inactive)
same,GI50,[8],69.2 µM (inactive)
same,GI50,[9],85.9 µM (inactive)
same,GI50,[10],> 100 µM (inactive)
same,GI50,[11],51.4 µM (inactive)
same,GI50,[12],> 100 µM (inactive)
same,GI50,[13],> 100 µM (inactive)
same,GI50,[14],> 100 µM (inactive)
same,GI50,[15],30.3 µM (inactive)
same,GI50,[16],> 100 µM (inactive)
same,GI50,[17],> 100 µM (inactive)
same,GI50,[18],45.4 µM (inactive)
same,GI50,[19],> 100 µM (inactive)
same,GI50,[20],44.1 µM (inactive)
same,GI50,[21],> 100 µM (inactive)
same,GI50,[22],20.6 µM (inactive)
same,GI50,[23],> 100 µM (inactive)
same,GI50,[24],80.2 µM (inactive)
same,GI50,[25],> 100 µM (inactive)
same,GI50,[26],> 100 µM (inactive)
same,GI50,[27],> 100 µM (inactive)
same,GI50,[28],> 100 µM (inactive)
same,GI50,[29],> 100 µM (inactive)
same,GI50,[30],> 100 µM (inactive)
same,GI50,[31],33.9 µM (inactive)
same,GI50,[32],79.6 µM (inactive)
same,GI50,[33],> 100 µM (inactive)
same,GI50,[34],> 100 µM (inactive)
same,GI50,[35],> 100 µM (inactive)
same,GI50,[36],60.4 µM (inactive)
same,GI50,[37],> 100 µM (inactive)
same,GI50,[38],33.2 µM (inactive)
same,GI50,[39],> 100 µM (inactive)
same,GI50,[40],> 100 µM (inactive)
same,GI50,[41],32.4 µM (inactive)
same,GI50,[42],> 100 µM (inactive)
same,GI50,[43],> 100 µM (inactive)
same,GI50,[44],93.1 µM (inactive)
same,GI50,[45],70.1 µM
same,GI50,[46],> 100 µM (inactive)
same,GI50,[47],> 100 µM (inactive)
same,GI50,[48],> 100 µM (inactive)
same,GI50,[49],> 100 µM (inactive)
same,GI50,[50],> 100 µM (inactive)
same,GI50,[51],98.4 µM (inactive)
same,GI50,[52],> 100 µM (inactive)
same,GI50,[53],> 100 µM (inactive)
same,GI50,[54],39 µM (inactive)
same,GI50,[55],> 100 µM (inactive)
same,GI50,[56],> 100 µM (inactive)
Cc1cc2nc(N3C(=O)/C(=C/c4ccccc4S)N=C3c3ccccc3)sc2cc1C,GI50,[1],30.1 µM (inactive)
same,GI50,[2],26.1 µM (inactive)
same,GI50,[4],21 µM (inactive)
same,GI50,[5],46.5 µM (inactive)
same,GI50,[6],99.5 µM (inactive)
same,GI50,[7],18.7 µM (inactive)
same,GI50,[8],18.3 µM (inactive)
same,GI50,[57],29.3 µM (inactive)
same,GI50,[9],19.2 µM (inactive)
same,GI50,[10],59.7 µM (inactive)
same,GI50,[11],18.8 µM (inactive)
same,GI50,[12],32 µM (inactive)
same,GI50,[13],18.2 µM (inactive)
same,GI50,[14],54.2 µM (inactive)
same,GI50,[15],11.6 µM (inactive)
same,GI50,[16],37.5 µM (inactive)
same,GI50,[17],49.3 µM (inactive)
same,GI50,[58],29.3 µM (inactive)
same,GI50,[18],20 µM (inactive)
same,GI50,[19],27 µM (inactive)
same,GI50,[20],31.8 µM (inactive)
same,GI50,[21],39.2 µM (inactive)
same,GI50,[22],22.4 µM (inactive)
same,GI50,[23],55.8 µM (inactive)
same,GI50,[24],26.5 µM (inactive)
same,GI50,[25],18.8 µM (inactive)
same,GI50,[26],32.7 µM (inactive)
same,GI50,[27],18.5 µM (inactive)
same,GI50,[28],25.8 µM (inactive)
same,GI50,[29],27.4 µM (inactive)
same,GI50,[30],31.5 µM (inactive)
same,GI50,[31],54.1 µM (inactive)
same,GI50,[32],32.6 µM (inactive)
same,GI50,[33],18.5 µM (inactive)
same,GI50,[34],30.6 µM (inactive)
same,GI50,[35],26.7 µM (inactive)
same,GI50,[36],29.2 µM (inactive)
same,GI50,[37],43.1 µM (inactive)
same,GI50,[38],22.1 µM (inactive)
same,GI50,[39],26.5 µM (inactive)
same,GI50,[59],23.3 µM (inactive)
same,GI50,[40],36.6 µM (inactive)
same,GI50,[41],33.2 µM (inactive)
same,GI50,[42],29 µM (inactive)
same,GI50,[44],56.6 µM (inactive)
same,GI50,[45],32.7 µM
same,GI50,[46],21.7 µM (inactive)
same,GI50,[47],34 µM (inactive)
same,GI50,[48],88.1 µM (inactive)
same,GI50,[49],58.9 µM (inactive)
same,GI50,[50],28.6 µM (inactive)
same,GI50,[52],40.8 µM (inactive)
same,GI50,[54],15.4 µM (inactive)
same,GI50,[55],34 µM (inactive)
same,GI50,[56],58.1 µM (inactive)
O=C(CN1CCN(c2ccccn2)CC1)N1CCCn2c1nc1ccccc1c2=O,GI50,[1],> 100 µM (inactive)
same,GI50,[2],> 100 µM (inactive)
same,GI50,[3],> 100 µM (inactive)
same,GI50,[4],> 100 µM (inactive)
same,GI50,[5],> 100 µM (inactive)
same,GI50,[6],> 100 µM (inactive)
same,GI50,[7],> 100 µM (inactive)
same,GI50,[8],> 100 µM (inactive)
same,GI50,[9],> 100 µM (inactive)
same,GI50,[10],> 100 µM (inactive)
same,GI50,[11],> 100 µM (inactive)
same,GI50,[12],> 100 µM (inactive)
same,GI50,[13],> 100 µM (inactive)
same,GI50,[15],> 100 µM (inactive)
same,GI50,[16],> 100 µM (inactive)
same,GI50,[17],> 100 µM (inactive)
same,GI50,[58],> 100 µM (inactive)
same,GI50,[18],> 100 µM (inactive)
same,GI50,[19],> 100 µM (inactive)
same,GI50,[20],> 100 µM (inactive)
same,GI50,[21],> 100 µM (inactive)
same,GI50,[22],> 100 µM (inactive)
same,GI50,[23],> 100 µM (inactive)
same,GI50,[24],> 100 µM (inactive)
same,GI50,[25],> 100 µM (inactive)
same,GI50,[26],> 100 µM (inactive)
same,GI50,[27],> 100 µM (inactive)
same,GI50,[28],> 100 µM (inactive)
same,GI50,[29],> 100 µM (inactive)
same,GI50,[30],> 100 µM (inactive)
same,GI50,[31],> 100 µM (inactive)
same,GI50,[32],> 100 µM (inactive)
same,GI50,[33],> 100 µM (inactive)
same,GI50,[34],> 100 µM (inactive)
same,GI50,[35],> 100 µM (inactive)
same,GI50,[36],> 100 µM (inactive)
same,GI50,[37],> 100 µM (inactive)
same,GI50,[38],> 100 µM (inactive)
same,GI50,[39],> 100 µM (inactive)
same,GI50,[59],> 100 µM (inactive)
same,GI50,[40],> 100 µM (inactive)
same,GI50,[41],> 100 µM (inactive)
same,GI50,[42],> 100 µM (inactive)
same,GI50,[43],> 100 µM (inactive)
same,GI50,[44],> 100 µM (inactive)
same,GI50,[45],> 100 µM
same,GI50,[46],> 100 µM (inactive)
same,GI50,[47],> 100 µM (inactive)
same,GI50,[48],> 100 µM (inactive)
same,GI50,[49],> 100 µM (inactive)
same,GI50,[50],> 100 µM (inactive)
same,GI50,[51],> 100 µM (inactive)
same,GI50,[52],> 100 µM (inactive)
same,GI50,[53],> 100 µM (inactive)
same,GI50,[54],> 100 µM (inactive)
same,GI50,[55],> 100 µM (inactive)
same,GI50,[56],> 100 µM (inactive)
